Patent publication US20070191311A1, “P2x receptor inhibitor” (priority 2004, published 2007)

Legend:
rat type P2X2/3 receptor = target: T1, rat type P2X2/3 receptor (Rattus norvegicus, UniProt P49653+P49654); assay: P2X2/3 receptor inhibitory activity ([14C]-guanidine uptake stimulated by αβ-me ATP in CHO cells); type: cell-based; details: for IC50: CHO cell expressing rat type P2X2/3 receptor, 4 μM αβ-me ATP, [14C]-guanidine, 15 minutes room temperature, read-out: IC50 (concentration which inhibits 50% of the function of P2X2/3 receptor); for P2X2/3,3 receptor inhibitory activity (in words): Table 1
T1 construct: expressed in transfected cells; host or cells: CHO cells (selected with G-418)
T1 sequence (P49653 1-472): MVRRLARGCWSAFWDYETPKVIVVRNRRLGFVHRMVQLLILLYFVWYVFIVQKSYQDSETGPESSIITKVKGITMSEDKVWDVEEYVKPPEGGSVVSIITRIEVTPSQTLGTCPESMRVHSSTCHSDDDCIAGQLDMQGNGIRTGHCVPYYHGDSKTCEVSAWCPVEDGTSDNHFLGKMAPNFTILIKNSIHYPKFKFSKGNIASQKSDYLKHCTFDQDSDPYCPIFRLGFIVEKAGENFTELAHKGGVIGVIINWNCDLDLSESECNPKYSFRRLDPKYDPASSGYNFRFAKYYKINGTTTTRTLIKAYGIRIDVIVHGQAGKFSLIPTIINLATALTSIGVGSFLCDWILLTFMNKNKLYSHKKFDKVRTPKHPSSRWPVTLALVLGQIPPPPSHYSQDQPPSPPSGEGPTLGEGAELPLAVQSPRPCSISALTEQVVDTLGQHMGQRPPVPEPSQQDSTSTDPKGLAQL
T1 sequence (P49654 1-397): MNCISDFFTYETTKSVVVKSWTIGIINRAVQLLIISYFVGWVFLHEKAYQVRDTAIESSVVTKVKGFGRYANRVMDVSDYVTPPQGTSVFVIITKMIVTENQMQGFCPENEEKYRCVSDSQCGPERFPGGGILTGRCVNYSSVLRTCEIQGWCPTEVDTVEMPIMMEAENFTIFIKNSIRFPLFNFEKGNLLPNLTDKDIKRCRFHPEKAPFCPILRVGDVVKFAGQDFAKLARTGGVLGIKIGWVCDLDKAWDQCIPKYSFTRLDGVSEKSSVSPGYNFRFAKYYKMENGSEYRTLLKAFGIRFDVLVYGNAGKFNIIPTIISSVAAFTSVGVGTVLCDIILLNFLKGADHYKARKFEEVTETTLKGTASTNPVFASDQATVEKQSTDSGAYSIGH
Protocol: On the day before the test, the resulting cells were inoculated onto a 96-well culture plate at a density of about 6×10^4 cells/well and cultured for 24 hours in the medium containing 2 units/ml of apyrase 2.

[1] = in vivo; cited from earlier work
mouse = assay: Formalin induced pain behavior; type: in vivo
Protocol: The test substance or solvent was subcutaneously administered to each mouse at a volume of 10 ml/kg. After 30 minutes thereof, formalin was administered under the skin of one sole (2.0%, 20 μl/body). Total time of lifting (a behavior of lifting the administered side sole from the floor face) and licking (a behavior of licking and biting the administered side sole) occurred during every 5 minutes was measured over 30 minutes starting just after the administration of formalin. By defining the period of from 0 to 5 minutes after the formalin administration as a phase I (Phase I), and that of from 10 to 30 minutes as a phase II (Phase II), the total time of lifting and licking occurred in each phase was calculated.

[2] = tested on: patients of multiple myeloma; details: oral 6 mg once a day; 24 weeks; cited from earlier work
mice [3] = assay: αβ-me ATP induced pain behavior; type: in vivo; details: for αβ-me ATP induced pain behavior (total time of lifting and licking): 30 minutes before αβ-me ATP, significant difference to control
Protocol: 16 (2000). […] Total time of lifting (a behavior of lifting the administered side sole from the floor face) and licking (a behavior of licking and biting the administered side sole) occurred during 5 minutes just after the administration of αβ-me ATP was measured. […] Test on the statistical significant difference between the solvent administration group used as a control group and the test substance administration group was carried out using the Dunnett method.

mice [4] = assay: Acetic acid induced pain behavior (writhing); type: in vivo
Protocol: This test was carried out with reference to the method described in Pain, 96, p. […] After 30 minutes thereof, 0.6% acetic acid was intraperitoneally administered (10 ml/kg). Frequency of writhing (a body writhing behavior) occurred within a period of 15 minutes, starting from 2 minutes after the acetic acid administration until 17 minutes thereafter, was measured. The test was carried out twice as the test 1 and test 2. Test on the statistical significant difference between the solvent administration group used as a control group and the test substance administration group was carried out using the Dunnett method.

[5] = tested on: patients of bone metastasis of breast cancer and bone metastasis of lung cancer; assay: Clinical test in patients of bone metastasis of breast cancer and lung cancer; type: in vivo, human; details: 1 or 2 mg once in 2 weeks for 12 weeks; from the initial evaluation time (1st week)
cancer patients = details: clinical test; cited from earlier work
rat cancer pain model = details: continuously administered for 19 days; cited from earlier work

Question: What does the source list for `O=P(O)(O)C(Cl)(Cl)P(=O)(O)O` [clodronate]?
Answer: IC50 (rat type P2X2/3 receptor): > 300 µM; P2X2/3,3 receptor inhibitory activity (in words) (rat type P2X2/3 receptor): did not show the P2X2/3,3 receptor inhibitory activity; analgesic action in the tail-flick test [1]: dose-dependent analgesic action

Question: Which “formalin induced pain behavior, Phase I (0 to 5 minutes)” value (mouse; 30 mg/kg s.c.) does the source give for `O=P(O)(O)C(O)(Cc1cnc2ccccn12)P(=O)(O)O` [minodronic acid hydrate] here?
Answer: The value was “did not exert influence”.

Question: What about the “formalin induced pain behavior, Phase II (10 to 30 minutes)” value (mouse; 30 mg/kg s.c.) of the same molecule?
Answer: The value was “suppressed”.

Question: What about the “behavioral side effect at the time of the pain behavior observation” value (“behavioral side effect at the time” for short) (mouse; formalin test) of the same molecule?
Answer: The value was “not observed”.

Question: What about the “bone pain in multiple myeloma patients” value [2] of the same molecule?
Answer: Its value is “improved”.

Question: What about the “used amount of an analgesic in multiple myeloma patients” value [2] of the same molecule?
Answer: Its value is “reduced”.

Question: Which “αβ-me ATP induced pain behavior (total time of lifting and licking)” value (mice [3]; 30 mg/kg i.p.) does the source give for `O=P(O)(O)C(O)(Cc1cnc2ccccn12)P(=O)(O)O` [minodronic acid, 1-hydroxy-2-(imidazo[1,2-a]pyridin-3-yl)ethane-1,1-bisphosphonic acid] here?
Answer: Its value is “suppressed”.

Question: And the “αβ-me ATP induced pain behavior (total time of lifting and licking)” value (mice [3]; 10 to 50 mg/kg s.c.)?
Answer: The value was “suppressed”.

Question: What about the “behavioral side effect at the time” value (mice [3]; αβ-me ATP test) of the same molecule?
Answer: The value was “not observed”.

Question: And the “behavioral side effect at the time” value (mice [4]; acetic acid test)?
Answer: Its value is “not observed”.

Question: And the “writhing behavior (acetic acid induced)” value (mice [4]; s.c., 10 and 30 mg/kg, 0.6% acetic acid i.p.)?
Answer: Its value is “dose-dependently suppressed”.

Question: And the “pain value (bone pain) in patients” value [5]?
Answer: The value was “reducing tendency of pain value was observed”.

Question: What about the “P2X2/3,3 receptor inhibitory activity (in words)” value (rat type P2X2/3 receptor) of the same molecule?
Answer: Its value is “good receptor inhibitory activity”.

Question: For `NCCC(O)(P(=O)(O)O)P(=O)(O)O` [pamidronate], which IC50 (rat type P2X2/3 receptor) is on record?
Answer: Its IC50 is greater than 300 µM.

Question: What about the “P2X2/3,3 receptor inhibitory activity (in words)” value (rat type P2X2/3 receptor) of the same molecule?
Answer: The value was “did not show the P2X2/3,3 receptor inhibitory activity”.

Question: And the “analgesic action in the tail-flick test” value [1]?
Answer: The value was “dose-dependent analgesic action”.

Question: With `Cc1ccc(C(=O)Nc2ccc(S(=O)(=O)O)c3cc(S(=O)(=O)O)cc(S(=O)(=O)O)c23)cc1NC(=O)c1cccc(NC(=O)Nc2cccc(C(=O)Nc3cc(C(=O)Nc4ccc(S(=O)(=O)O)c5cc(S(=O)(=O)O)cc(S(=O)(=O)O)c45)ccc3C)c2)c1` [suramin] as the molecule, how does the “pain score in cancer patients” value (cancer patients) read?
Answer: Its value is “reduction of pain score was observed”.

Question: What about the IC50 (rat type P2X2/3 receptor) of the same molecule?
Answer: The IC50 was 194 µM.

Question: For `O=P(O)(O)C(O)(Cn1ccnc1)P(=O)(O)O` [zoledronate], which “mechanical allodynia and mechanical hyperalgesia accompanied by cancer pain” value (rat cancer pain model) is on record?
Answer: The value was “inhibit”.

Question: What about the IC50 (rat type P2X2/3 receptor) of the same molecule?
Answer: The IC50 was greater than 300 µM.

Question: And the “P2X2/3,3 receptor inhibitory activity (in words)” value (rat type P2X2/3 receptor)?
Answer: Its value is “did not show the P2X2/3,3 receptor inhibitory activity”.

Question: For trinitrophenyl (TNP)-ATP [TNP-ATP], which IC50 (rat type P2X2/3 receptor) is on record?
Answer: The IC50 was 0.18 µM.
